What was measured:
[1] = molecular target: Histone deacetylase 1 (Homo sapiens, UniProt Q13547)
Description: Inhibition of HDAC1 (unknown origin) incubated for 30 mins by fluorescence plate reader assay

[2] = molecular target: T1, Protein deacetylase HDAC6 (Homo sapiens, UniProt Q9UBN7)
T1 sequence (Q9UBN7 whole entry): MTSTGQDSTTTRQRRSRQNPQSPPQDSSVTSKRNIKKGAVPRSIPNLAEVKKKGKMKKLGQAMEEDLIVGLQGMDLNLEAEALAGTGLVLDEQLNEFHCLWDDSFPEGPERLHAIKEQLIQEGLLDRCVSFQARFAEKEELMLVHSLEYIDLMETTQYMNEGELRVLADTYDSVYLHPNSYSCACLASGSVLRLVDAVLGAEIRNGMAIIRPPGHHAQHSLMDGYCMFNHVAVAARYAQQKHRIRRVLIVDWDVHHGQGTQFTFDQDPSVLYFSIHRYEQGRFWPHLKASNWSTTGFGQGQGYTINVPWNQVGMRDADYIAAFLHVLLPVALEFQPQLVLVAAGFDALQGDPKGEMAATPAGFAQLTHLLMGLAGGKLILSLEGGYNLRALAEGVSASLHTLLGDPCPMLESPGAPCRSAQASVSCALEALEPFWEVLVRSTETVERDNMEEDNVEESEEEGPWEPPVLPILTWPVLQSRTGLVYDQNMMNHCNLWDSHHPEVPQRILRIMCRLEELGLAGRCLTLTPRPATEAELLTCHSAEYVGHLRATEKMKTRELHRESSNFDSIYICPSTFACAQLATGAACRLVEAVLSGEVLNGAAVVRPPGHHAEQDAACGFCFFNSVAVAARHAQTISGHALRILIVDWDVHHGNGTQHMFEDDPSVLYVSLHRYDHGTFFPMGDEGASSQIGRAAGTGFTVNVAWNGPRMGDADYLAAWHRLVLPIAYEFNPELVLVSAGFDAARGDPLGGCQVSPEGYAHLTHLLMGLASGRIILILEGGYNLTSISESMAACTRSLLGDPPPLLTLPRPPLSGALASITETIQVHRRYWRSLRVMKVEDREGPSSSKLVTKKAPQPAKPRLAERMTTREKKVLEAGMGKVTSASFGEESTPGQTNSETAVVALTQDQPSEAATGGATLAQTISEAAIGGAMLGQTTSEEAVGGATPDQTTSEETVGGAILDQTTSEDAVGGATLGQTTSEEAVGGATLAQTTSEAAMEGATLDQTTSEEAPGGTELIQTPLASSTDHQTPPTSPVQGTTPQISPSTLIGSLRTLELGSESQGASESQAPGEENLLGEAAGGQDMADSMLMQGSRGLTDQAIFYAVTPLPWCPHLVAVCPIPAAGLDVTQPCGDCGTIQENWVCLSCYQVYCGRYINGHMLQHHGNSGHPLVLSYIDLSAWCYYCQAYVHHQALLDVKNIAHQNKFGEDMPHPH
Description: Inhibition of HDAC6 (unknown origin) incubated for 30 mins by fluorescence plate reader assay

[3] = molecular target: Histone deacetylase 2 (Homo sapiens, UniProt Q92769)
Description: Inhibition of HDAC2 (unknown origin) incubated for 30 mins by fluorescence plate reader assay

[4] = molecular target: Histone deacetylase 3 (Homo sapiens, UniProt O15379); test: Inhibition of HDAC3 (unknown origin) incubated for 30 mins by fluorescence plate reader assay
[5] = molecular target: T2, Histone deacetylase 8 (Homo sapiens, UniProt Q9BY41); test: Inhibition of HDAC8 (unknown origin) incubated for 30 mins by fluorescence plate reader assay
T2 sequence (Q9BY41 whole entry): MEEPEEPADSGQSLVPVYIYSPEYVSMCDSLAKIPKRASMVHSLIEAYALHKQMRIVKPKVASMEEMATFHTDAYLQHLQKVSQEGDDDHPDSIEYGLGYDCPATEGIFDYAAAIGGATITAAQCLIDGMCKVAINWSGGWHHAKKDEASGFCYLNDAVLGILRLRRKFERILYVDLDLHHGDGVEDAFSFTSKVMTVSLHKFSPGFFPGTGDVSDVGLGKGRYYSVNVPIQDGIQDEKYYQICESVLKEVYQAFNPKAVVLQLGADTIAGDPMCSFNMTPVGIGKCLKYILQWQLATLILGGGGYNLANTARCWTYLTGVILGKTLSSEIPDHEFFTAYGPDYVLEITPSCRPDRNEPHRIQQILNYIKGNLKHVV

[6] = molecular target: Histone deacetylase 4 (Homo sapiens, UniProt P56524); test: Inhibition of HDAC4 (unknown origin) incubated for 30 mins by fluorescence plate reader assay
[7] = molecular target: Histone deacetylase 5 (Homo sapiens, UniProt Q9UQL6); test: Inhibition of HDAC5 (unknown origin) incubated for 30 mins by fluorescence plate reader assay
[8] = molecular target: T3, Histone deacetylase 7 (Homo sapiens, UniProt Q8WUI4); test: Inhibition of HDAC7 (unknown origin) incubated for 30 mins by fluorescence plate reader assay
T3 sequence (Q8WUI4 whole entry): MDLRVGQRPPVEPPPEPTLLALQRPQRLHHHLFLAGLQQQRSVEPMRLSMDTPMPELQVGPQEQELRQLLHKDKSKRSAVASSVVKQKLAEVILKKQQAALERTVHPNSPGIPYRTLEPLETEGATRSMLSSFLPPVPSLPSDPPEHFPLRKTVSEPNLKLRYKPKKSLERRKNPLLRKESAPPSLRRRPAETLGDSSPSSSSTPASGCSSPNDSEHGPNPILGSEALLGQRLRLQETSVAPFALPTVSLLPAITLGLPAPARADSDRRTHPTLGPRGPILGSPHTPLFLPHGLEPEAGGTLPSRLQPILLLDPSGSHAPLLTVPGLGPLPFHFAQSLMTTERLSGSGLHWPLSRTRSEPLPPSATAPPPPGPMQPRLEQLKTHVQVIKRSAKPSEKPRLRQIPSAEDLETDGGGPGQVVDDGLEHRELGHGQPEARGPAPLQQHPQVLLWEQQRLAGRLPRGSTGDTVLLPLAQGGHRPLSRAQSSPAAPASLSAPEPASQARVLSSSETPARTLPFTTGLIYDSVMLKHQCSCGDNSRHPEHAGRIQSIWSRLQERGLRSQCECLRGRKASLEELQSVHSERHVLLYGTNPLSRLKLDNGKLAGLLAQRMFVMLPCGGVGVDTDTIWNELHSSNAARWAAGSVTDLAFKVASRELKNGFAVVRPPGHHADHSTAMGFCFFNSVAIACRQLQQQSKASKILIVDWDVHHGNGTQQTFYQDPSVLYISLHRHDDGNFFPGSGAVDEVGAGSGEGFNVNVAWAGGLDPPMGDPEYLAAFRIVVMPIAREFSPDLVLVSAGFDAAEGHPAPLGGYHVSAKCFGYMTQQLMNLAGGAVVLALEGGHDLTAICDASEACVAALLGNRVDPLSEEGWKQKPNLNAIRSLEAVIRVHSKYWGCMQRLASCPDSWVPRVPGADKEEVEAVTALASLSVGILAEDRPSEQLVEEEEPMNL

[9] = molecular target: Histone deacetylase 9 (Homo sapiens, UniProt Q9UKV0); test: Inhibition of HDAC9 (unknown origin) incubated for 30 mins by fluorescence plate reader assay
[10] = molecular target: T4, Polyamine deacetylase HDAC10 (Homo sapiens, UniProt Q969S8); test: Inhibition of HDAC10 (unknown origin) incubated for 30 mins by fluorescence plate reader assay
T4 sequence (Q969S8 whole entry): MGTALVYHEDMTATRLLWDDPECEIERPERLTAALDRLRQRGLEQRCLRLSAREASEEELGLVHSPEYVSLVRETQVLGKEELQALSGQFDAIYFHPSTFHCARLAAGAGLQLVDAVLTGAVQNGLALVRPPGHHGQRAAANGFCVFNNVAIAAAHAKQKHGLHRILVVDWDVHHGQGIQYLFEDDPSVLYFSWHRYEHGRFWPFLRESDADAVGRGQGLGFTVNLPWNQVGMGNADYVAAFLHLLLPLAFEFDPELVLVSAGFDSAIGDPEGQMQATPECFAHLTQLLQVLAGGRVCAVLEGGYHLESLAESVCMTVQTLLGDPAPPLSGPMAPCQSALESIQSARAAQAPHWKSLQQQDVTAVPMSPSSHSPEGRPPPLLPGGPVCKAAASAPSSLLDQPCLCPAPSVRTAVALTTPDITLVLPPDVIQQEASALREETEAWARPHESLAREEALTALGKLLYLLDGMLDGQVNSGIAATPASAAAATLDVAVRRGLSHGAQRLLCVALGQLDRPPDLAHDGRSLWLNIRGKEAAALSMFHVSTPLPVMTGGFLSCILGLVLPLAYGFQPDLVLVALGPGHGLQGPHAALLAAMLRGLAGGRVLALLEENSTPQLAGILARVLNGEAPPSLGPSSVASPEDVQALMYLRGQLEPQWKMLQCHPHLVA

[11] = molecular target: T5, Histone deacetylase 11 (Homo sapiens, UniProt Q96DB2); test: Inhibition of HDAC11 (unknown origin) incubated for 30 mins by fluorescence plate reader assay
T5 sequence (Q96DB2 whole entry): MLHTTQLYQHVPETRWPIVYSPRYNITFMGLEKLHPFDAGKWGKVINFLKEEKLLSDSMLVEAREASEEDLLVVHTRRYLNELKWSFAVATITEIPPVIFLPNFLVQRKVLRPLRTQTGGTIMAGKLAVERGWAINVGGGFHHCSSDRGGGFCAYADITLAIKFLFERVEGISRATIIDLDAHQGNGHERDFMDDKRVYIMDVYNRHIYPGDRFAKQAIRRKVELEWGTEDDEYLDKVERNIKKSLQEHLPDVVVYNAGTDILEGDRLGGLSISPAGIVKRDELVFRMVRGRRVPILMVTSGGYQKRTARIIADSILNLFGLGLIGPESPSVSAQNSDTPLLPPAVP

Histone deacetylase 1, sequence (Q13547 whole entry): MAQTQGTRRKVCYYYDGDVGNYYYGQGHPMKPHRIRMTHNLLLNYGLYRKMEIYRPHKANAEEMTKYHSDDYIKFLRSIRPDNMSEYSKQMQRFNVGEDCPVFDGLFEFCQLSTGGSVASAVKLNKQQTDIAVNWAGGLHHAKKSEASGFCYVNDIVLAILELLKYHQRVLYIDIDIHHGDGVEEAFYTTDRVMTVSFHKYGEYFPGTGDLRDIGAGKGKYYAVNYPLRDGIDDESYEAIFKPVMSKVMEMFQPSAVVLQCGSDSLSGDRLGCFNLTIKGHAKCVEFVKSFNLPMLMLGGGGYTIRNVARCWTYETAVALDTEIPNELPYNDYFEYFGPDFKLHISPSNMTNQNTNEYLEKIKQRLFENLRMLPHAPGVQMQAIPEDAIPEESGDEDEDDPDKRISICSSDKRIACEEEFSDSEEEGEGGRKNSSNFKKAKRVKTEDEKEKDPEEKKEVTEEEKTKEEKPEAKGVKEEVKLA
Histone deacetylase 3, sequence (O15379 whole entry): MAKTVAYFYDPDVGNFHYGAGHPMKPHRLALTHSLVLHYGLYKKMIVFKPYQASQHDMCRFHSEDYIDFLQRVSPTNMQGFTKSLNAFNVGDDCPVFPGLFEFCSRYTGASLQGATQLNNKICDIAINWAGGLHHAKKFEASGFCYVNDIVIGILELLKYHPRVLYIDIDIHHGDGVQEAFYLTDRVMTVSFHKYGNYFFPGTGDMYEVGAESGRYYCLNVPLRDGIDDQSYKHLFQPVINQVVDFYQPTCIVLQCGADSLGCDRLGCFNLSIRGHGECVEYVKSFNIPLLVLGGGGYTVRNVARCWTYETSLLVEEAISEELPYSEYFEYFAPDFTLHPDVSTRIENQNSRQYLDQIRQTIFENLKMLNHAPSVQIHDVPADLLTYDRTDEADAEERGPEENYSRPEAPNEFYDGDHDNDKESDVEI
Histone deacetylase 4, sequence (P56524 whole entry): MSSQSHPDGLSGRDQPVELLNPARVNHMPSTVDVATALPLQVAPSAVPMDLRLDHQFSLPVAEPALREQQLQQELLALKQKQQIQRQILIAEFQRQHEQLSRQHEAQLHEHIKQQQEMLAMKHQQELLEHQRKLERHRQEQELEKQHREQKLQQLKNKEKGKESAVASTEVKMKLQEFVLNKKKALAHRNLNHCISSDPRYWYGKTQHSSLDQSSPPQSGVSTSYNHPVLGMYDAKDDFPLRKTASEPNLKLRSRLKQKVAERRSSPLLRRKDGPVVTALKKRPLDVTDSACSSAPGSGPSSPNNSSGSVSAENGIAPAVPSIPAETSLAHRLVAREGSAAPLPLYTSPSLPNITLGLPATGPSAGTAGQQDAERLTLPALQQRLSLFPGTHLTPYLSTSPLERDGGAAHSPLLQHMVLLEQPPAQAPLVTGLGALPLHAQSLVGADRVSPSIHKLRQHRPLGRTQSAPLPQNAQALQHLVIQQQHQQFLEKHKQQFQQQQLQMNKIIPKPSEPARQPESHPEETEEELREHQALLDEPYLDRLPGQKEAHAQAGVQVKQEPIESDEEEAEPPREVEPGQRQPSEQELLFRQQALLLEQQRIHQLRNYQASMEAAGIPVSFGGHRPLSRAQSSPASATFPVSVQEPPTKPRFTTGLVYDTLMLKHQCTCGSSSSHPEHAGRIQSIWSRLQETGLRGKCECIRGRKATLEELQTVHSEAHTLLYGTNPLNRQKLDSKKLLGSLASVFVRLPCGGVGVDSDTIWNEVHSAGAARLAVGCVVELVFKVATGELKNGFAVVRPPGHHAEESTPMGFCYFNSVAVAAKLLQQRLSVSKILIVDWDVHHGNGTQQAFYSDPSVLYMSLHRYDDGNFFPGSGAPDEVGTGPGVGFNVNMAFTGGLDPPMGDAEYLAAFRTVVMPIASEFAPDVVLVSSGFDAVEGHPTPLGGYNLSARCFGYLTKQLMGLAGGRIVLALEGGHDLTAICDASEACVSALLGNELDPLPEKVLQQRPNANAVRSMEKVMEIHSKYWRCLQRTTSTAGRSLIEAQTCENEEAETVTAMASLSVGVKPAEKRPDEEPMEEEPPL
Histone deacetylase 2, sequence (Q92769 whole entry): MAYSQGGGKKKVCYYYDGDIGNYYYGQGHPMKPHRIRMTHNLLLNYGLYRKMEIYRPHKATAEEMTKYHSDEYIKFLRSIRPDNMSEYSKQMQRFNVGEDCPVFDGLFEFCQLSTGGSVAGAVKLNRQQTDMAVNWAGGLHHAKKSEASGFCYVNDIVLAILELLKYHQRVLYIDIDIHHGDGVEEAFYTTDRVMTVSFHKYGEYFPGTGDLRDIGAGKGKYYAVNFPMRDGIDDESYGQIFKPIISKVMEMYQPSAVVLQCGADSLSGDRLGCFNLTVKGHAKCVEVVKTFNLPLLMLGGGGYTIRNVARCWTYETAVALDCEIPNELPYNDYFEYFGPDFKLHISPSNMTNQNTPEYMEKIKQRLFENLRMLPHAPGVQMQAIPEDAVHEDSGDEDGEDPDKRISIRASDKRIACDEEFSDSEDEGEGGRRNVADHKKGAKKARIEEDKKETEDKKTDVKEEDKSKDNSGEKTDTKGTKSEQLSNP
Histone deacetylase 5, sequence (Q9UQL6 whole entry): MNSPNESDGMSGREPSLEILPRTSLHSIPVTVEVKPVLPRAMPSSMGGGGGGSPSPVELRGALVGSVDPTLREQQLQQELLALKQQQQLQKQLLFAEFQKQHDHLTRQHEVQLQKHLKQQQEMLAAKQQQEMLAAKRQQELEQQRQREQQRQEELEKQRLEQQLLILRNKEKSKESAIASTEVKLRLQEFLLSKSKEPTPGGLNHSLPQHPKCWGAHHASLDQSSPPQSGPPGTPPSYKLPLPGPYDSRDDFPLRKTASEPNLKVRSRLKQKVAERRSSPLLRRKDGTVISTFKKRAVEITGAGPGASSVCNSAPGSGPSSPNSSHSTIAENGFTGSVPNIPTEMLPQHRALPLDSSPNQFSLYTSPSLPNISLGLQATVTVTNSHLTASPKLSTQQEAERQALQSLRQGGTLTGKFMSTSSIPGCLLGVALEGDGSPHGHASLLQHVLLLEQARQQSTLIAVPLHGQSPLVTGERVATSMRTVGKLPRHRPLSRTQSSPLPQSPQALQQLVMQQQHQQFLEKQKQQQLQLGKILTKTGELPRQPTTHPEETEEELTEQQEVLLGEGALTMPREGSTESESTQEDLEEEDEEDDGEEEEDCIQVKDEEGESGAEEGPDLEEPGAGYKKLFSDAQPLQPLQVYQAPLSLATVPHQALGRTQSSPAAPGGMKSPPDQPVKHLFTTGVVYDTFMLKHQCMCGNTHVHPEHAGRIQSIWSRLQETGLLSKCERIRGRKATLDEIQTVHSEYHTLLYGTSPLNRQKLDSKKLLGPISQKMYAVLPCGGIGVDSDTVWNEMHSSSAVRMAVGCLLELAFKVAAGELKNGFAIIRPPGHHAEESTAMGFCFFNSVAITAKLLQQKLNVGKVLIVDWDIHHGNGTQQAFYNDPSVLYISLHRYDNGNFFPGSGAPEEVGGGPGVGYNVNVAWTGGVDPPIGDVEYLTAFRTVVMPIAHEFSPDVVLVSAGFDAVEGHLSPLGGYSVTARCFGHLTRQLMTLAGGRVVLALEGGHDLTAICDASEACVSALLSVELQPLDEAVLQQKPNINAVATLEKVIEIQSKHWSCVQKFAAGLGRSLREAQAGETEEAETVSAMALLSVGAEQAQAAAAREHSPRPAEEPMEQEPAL
Histone deacetylase 9, sequence (Q9UKV0 whole entry): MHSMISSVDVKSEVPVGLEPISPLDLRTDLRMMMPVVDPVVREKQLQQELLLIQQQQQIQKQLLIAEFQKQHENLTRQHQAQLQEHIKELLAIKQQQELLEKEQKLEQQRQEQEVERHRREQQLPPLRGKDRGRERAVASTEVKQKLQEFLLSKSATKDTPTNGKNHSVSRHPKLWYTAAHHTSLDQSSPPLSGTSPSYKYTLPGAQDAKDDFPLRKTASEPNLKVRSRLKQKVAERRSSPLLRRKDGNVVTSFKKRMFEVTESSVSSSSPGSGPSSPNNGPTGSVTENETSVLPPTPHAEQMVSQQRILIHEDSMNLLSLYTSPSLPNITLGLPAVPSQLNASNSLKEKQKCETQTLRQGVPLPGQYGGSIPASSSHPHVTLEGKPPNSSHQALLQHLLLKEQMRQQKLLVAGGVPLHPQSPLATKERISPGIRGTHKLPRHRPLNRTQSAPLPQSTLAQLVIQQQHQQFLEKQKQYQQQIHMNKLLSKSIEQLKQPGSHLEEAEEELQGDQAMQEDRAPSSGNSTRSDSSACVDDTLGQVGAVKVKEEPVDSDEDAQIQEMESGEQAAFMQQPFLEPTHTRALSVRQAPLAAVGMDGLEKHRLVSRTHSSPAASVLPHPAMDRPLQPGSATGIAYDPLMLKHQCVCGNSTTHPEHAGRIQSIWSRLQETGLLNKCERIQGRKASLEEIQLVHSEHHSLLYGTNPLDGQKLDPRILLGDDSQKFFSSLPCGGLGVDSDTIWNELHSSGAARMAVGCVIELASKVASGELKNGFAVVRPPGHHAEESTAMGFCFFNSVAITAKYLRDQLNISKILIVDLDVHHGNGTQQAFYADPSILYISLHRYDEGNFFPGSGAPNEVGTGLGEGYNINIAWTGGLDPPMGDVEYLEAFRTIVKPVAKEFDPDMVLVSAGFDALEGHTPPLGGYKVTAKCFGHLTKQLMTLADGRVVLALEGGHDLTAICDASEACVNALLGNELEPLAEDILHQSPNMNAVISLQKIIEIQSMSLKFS

Row | Structure (SMILES) | IC50 [1] [nM] | IC50 [2] [nM] | IC50 [3] [nM] | IC50 [4] [nM] | IC50 [5] [nM] | IC50 [6] [nM] | IC50 [7] [nM] | IC50 [8] [nM] | IC50 [9] [nM] | IC50 [10] [nM] | IC50 [11] [nM]
1 | O=C(NO)c1ccc(CNC(=O)c2ccccc2)cc1 | 941 | 87 |  |  |  |  |  |  |  |  | 
2 | O=C(NO)c1ccc(CN(Cc2ccccc2)C(=O)c2ccccc2)cc1 | 850 |  | > 10000 | 1930 | 4480 | > 10000 | > 10000 | 4950 | > 10000 | 1410 | > 10000
